Reference: patent publication US10590129B2 (Incozen Therapeutics Pvt. Ltd., priority 2010, dated 2020)
Structures can show the parent of a compound that is named as a salt.

Key:
MKN-45 cells = experiment: Inhibition of MKN-45 proliferation (MTT); assay type: cell-based, human; conditions: Homo sapiens, MKN-45, MKN-45 proliferation
Description: Inhibition of MKN-45 Proliferation:
Cell proliferation assays were carried out using the high Met expressing human gastric adenocarcinoma cell line, MKN-45, according to the following schedule:
Day 1: Cells were plated in 96-well plates in complete growth medium.
Day 2: Compounds at desired concentrations were added.
Day 5: Cell viability was determined using the 3-[4,5-dimethylthiazol-2-yl]-2,5-diphenyltetrazolium bromide (MTT) dye reduction test.

| Structure (SMILES) | melting point | inhibition at 1 µM (MKN-45 cells) | GI50 (MKN-45 cells) | inhibition at 0.1 µM (MKN-45 cells) |
| --- | --- | --- | --- | --- |
| CN(C)CCCNC(=O)c1ccc(-c2ccc3nnn(Cc4ccc5ncccc5c4)c3n2)cc1F (as salt: hydrochloride) [Ex 121, N-(3-(dimethylamino)propyl)-2-fluoro-4-(3-(quinolin-6-ylmethyl)-3H-[1,2,3]triazolo[4,5-b]pyridin-5-yl)benzamide dihydrochloride] | 137 to 140 °C |  |  |  |
| COc1ccc(-c2ccc3nnn(Cc4ccc5ncccc5c4)c3n2)cc1 [Ex 1, 6-((5-(4-Methoxyphenyl)-3H-[1,2,3]triazolo[4,5-b]pyridin-3-yl)methyl)quinoline] | 144 to 146 °C | 25 to 50% |  |  |
| OCc1cccc(-c2ccc3nnn(Cc4ccc5ncccc5c4)c3n2)c1 [Ex 4, (3-(3-(quinolin-6-ylmethyl)-3H-[1,2,3]triazolo[4,5-b]pyridin-5-yl)phenyl)methanol] | 191 to 193 °C |  | 150 to 500 nM |  |
| OCc1ccc(-c2ccc3nnn(Cc4ccc(F)cc4)c3n2)cc1 [Ex 11, (4-(3-(4-Fluorobenzyl)-3H-[1,2,3]triazolo[4,5-b]pyridin-5-yl)phenyl)methanol] | 210 to 213 °C |  |  |  |
| O=C(O)c1ccc(-c2ccc3nnn(Cc4c(F)ccc(F)c4Cl)c3n2)cc1F [Ex 18, 4-(3-(2-Chloro-3,6-difluorobenzyl)-3H-[1,2,3]triazolo[4,5-b]pyridin-5-yl)-2-fluorobenzoic acid] | 211 to 213 °C | < 25% |  |  |
| CNC(=O)c1ccc(-c2ccc3nnn(Cc4c(F)ccc(F)c4Cl)c3n2)cc1F [Ex 19, 4-(3-(2-Chloro-3,6-difluorobenzyl)-3H-[1,2,3]triazolo[4,5-b]pyridin-5-yl)-2-fluoro-N-methylbenzamide] | 213 to 215 °C | < 25% |  |  |
| FC(F)(F)Oc1cccc(-c2ccc3nnn(Cc4ccc5ncccc5c4)c3n2)c1 [Ex 23, 6-((5-(3-(trifluoromethoxy)phenyl)-3H-[1,2,3]triazolo[4,5-b]pyridin-3-yl)methyl)quinoline] | 140 to 142 °C | < 25% |  |  |
| Oc1cccc(-c2ccc3nnn(Cc4ccc5ncccc5c4)c3n2)c1 [Ex 24, 3-(3-(quinolin-6-ylmethyl)-3H-[1,2,3]triazolo[4,5-b]pyridin-5-yl)phenol] | 255 to 257 °C | < 25% |  |  |
| FC(F)Oc1cccc(-c2ccc3nnn(Cc4ccc5ncccc5c4)c3n2)c1 [Ex 25, 6-((5-(3-(difluoromethoxy)phenyl)-3H-[1,2,3]triazolo[4,5-b]pyridin-3-yl)methyl) quinoline] | 122 to 125 °C | < 25% |  |  |
| O=C(NC1CCCCC1)c1ccc(-c2ccc3nnn(Cc4ccc5ncccc5c4)c3n2)cc1F [Ex 45, N-cyclohexyl-2-fluoro-4-(3-(quinolin-6-ylmethyl)-3H-[1,2,3]triazolo[4,5-b]pyridin-5-yl)benzamide] | 172 to 175 °C |  |  |  |
| O=C(Nc1ccncc1)c1ccc(-c2ccc3nnn(Cc4ccc5ncccc5c4)c3n2)cc1F [Ex 47, 2-Fluoro-N-(pyridin-4-yl)-4-(3-(quinolin-6-ylmethyl)-3H-[1,2,3]triazolo[4,5-b]pyridin-5-yl)benzamide] | 217 to 219 °C | 50 to 75% |  | < 25% |
| O=C(NCc1ccccc1)c1ccc(-c2ccc3nnn(Cc4ccc5ncccc5c4)c3n2)cc1F [Ex 48, N-Benzyl-2-fluoro-4-(3-(quinolin-6-ylmethyl)-3H-[1,2,3]triazolo[4,5-b]pyridin-5-yl)benzamide] | 163 to 165 °C | 75 to 100% |  | < 25% |
| CN(C)C(=O)c1ccc(-c2ccc3nnn(Cc4ccc5ncccc5c4)c3n2)cc1F [Ex 49, 2-Fluoro-N,N-dimethyl-4-(3-(quinolin-6-ylmethyl)-3H-[1,2,3]triazolo[4,5-b]pyridin-5-yl)benzamide] | 163 to 165 °C | 25 to 50% |  | < 25% |
| O=C(O)CNC(=O)c1ccc(-c2ccc3nnn(Cc4ccc5ncccc5c4)c3n2)cc1F [Ex 51, 2-(2-Fluoro-4-(3-(quinolin-6-ylmethyl)-3H-[1,2,3]triazolo[4,5-b]pyridin-5-yl)benzamido)acetic acid] | 252 to 254 °C | < 25% |  | < 25% |
| Fc1cccc(-c2ccc3nnn(Cc4ccc5ncccc5c4)c3n2)c1 [Ex 56, 6-((5-(3-Fluorophenyl)-3H-[1,2,3]triazolo[4,5-b]pyridin-3-yl)methyl)quinoline] | 145 to 147 °C | < 25% |  | < 25% |
| CON(C)C(=O)c1ccc(-c2ccc3nnn(Cc4ccc5ncccc5c4)c3n2)cc1F.Cl [Ex 59, 2-Fluoro-N-methoxy-N-methyl-4-(3-(quinolin-6-ylmethyl)-3H-[1,2,3]triazolo[4,5-b]pyridin-5-yl)benzamide hydrochloride] | 201 to 202 °C | 50 to 75% |  | < 25% |
| NCCCNC(=O)c1ccc(-c2ccc3nnn(Cc4ccc5ncccc5c4)c3n2)cc1F [Ex 112, N-(3-Aminopropyl)-2-fluoro-4-(3-(quinolin-6-ylmethyl)-3H-[1,2,3]triazolo[4,5-b]pyridin-5-yl)benzamide] | 292 to 294 °C |  |  |  |
| O=C(NC1CC1)c1ccc(-c2ccc3nnn(Cc4ccc5ncccc5c4)c3n2)cc1Cl [Ex 113, 2-Chloro-N-cyclopropyl-4-(3-(quinolin-6-ylmethyl)-3H-[1,2,3]triazolo[4,5-b]pyridin-5-yl)benzamide] | 197 to 199 °C |  |  |  |
| CCCn1cc(-c2ccc3nnn(Cc4ccc5ncccc5c4)c3n2)cn1 [Ex 153, 6-((5-(1-Propyl-1H-pyrazol-4-yl)-3H-[1,2,3]triazolo[4,5-b]pyridin-3-yl)methyl)quinoline] | 128 to 130 °C |  |  |  |
| O=C(O)Cn1cc(-c2ccc3nnn(Cc4ccc5ncccc5c4)c3n2)cn1 [Ex 155, 2-(4-(3-(Quinolin-6-ylmethyl)-3H-[1,2,3]triazolo[4,5-b]pyridin-5-yl)-1H-pyrazol-1-yl)acetic acid] | > 270 °C |  |  |  |
| O[C@@H]1CCN(c2ccc3nnn(Cc4ccc5ncccc5c4)c3n2)C1 [Ex 158, (R)-1-(3-(Quinolin-6-ylmethyl)-3H-[1,2,3]triazolo[4,5-b]pyridin-5-yl)pyrrolidin-3-ol] | 167 to 169 °C |  |  |  |
| OCCn1cc(-c2ccc3nnn(Cc4ccc(F)cc4)c3n2)cn1 [Ex 161, 2-(4-(3-(4-Fluorobenzyl)-3H-[1,2,3]triazolo[4,5-b]pyridin-5-yl)-1H-pyrazol-1-yl)ethanol] | 204 to 206 °C |  |  |  |
| OCCn1cc(-c2ccc3nnn(Cc4c(F)ccc(F)c4Cl)c3n2)cn1 [Ex 165, 2-(4-(3-(2-Chloro-3,6-difluorobenzyl)-3H-[1,2,3]triazolo[4,5-b]pyridin-5-yl)-1H-pyrazol-1-yl)ethanol] | 143 to 145 °C |  |  |  |
| NC(=O)c1ccc(-c2ccc3nnn(Cc4ccc5c(ccc[n+]5[O-])c4)c3n2)cc1Cl [Ex 224, 6-((5-(4-carbamoyl-3-chlorophenyl)-3H-[1,2,3]triazolo[4,5-b]pyridin-3-yl)methyl)quinoline 1-oxide] |  |  |  | 25 to 50% |
| CCNC(=O)c1ccc(-c2ccc3nnn(Cc4ccc5ncccc5c4)c3n2)cc1Cl [Ex 225, 2-chloro-N-ethyl-4-(3-(quinolin-6-ylmethyl)-3H-[1,2,3]triazolo[4,5-b]pyridin-5-yl)benzamide hydrochloride] |  | 50 to 75% |  | 75 to 100% |
